What was measured:
UT-7 = assay: Six-day cell proliferation assay (CellTiter-Glo); assay type: cell-based; conditions: Homo sapiens, UT7, 144 h; UT-7 (AML), 6 days; read-out: Average day 6 gIC50
Protocol: Six-day cell proliferation assay
Optimal cell seeding density was determined empirically for each cell lines by examining the gro wth of a wide ran ge o f seedin g densities in a 3 84-well formatto identify conditio ns that permitted maximal and continued proliferation for 6 days. Cells were plat ed in duplicate plates 24 hours before treatment with a 20- point two-fold dilution series of compound or 0.15%
DMSO. Plates were incubated for 6 da ys at 37°C in 5% CO2. Cells were th en l ysed with CellTiter-Glo (CTG) (Pr omega) and chemiluminescent sign al was detected with an appropriat e microplate reader. In addition, an untreated plate of cells was harvested at the time of compound addition (T0) to quantif y the initial cell densit y. CTG values obtained after 6 days of treatment were expressed as a percent of the T0 value and plotted against compound concentration. […]
Supplementary Table S 3. […] A p anel […]
of cell lines was treated with EZM2302fo r 6da ys in a proliferation ass a y. Cell densit y (as assessed b y CellTiter-Gl o) at da y 0 was compared to day 6 to det ermine growth IC 50 values , calculated us i n g a f our parameter dose response equation.
Cell Type According to Cell Type Category Cell L ine Name gIC50 Average day 6 Standard Replicates

Hepatocyte stability = assay type: in vitro ADME; conditions: 1 µM
Protocol: Hepatocyte stability, plasma protein binding and cytochrome P450 assays were performed using standard procedures. Details can be found in Supplementary Methods. […]
where K I and K J are th e inhibition constants for I and J , respectivel y, and alpha is a constant describing the effect of one inhibitor on the binding of another inhibitor 8.
Reversibility experiments were performed in assay buffer lacking bovine skin gelatin. CARM1 […]
mixture was purified using pre-equilibrated 0.5 mL Zeba (7MWCO) spin columns (Thermo Fisher) following manufacturer ’s instructions. CARM1 was diluted to 0.5 nM in an assay reaction mixture using previously described conditions and activity was measured over 2 hours.
Proteins were kept at 4 °C for further activit y testing. Similar results were also obtained when […]
Methyltransf erase cros s screening panel […]
gen eral p rocedu res f rom Knutson et al.9
In cell w estern assay f or detection of asymmetric di -methyl PABP1 an d DNA content RKO cells (ATCC) were maintained in growth medium (DMEM/Glutamax medium supplemented with 10% v/v heat inactivated fetal bovine serum and 100 units/mL penicillin-streptom ycin) and cultured at 37 °C under 5% CO2. Cells were seeded in assay medium at a concentration of 30,000 cells per m L to a pol y -D-l ys ine coated 384 well culture plate with 50 µ L per well. […]

## CNC[C@@H](O)COc1ccc(Cl)c(-c2nc(-c3c(C)noc3C)c(C)c(N3CC4(CCN(C(=O)OC)CC4)C3)n2)c1 [EZM2302]
UT-7
  IC50: > 27.6 µM
Hepatocyte stability
  CL in human hepatocytes (scaled): < 3 mL/min/kg

Reference: publication PMC5740082, “Identification of a CARM1 Inhibitor with Potent In Vitro and In Vivo Activity in Preclinical Models of Multiple Myeloma” (Scientific Reports, 2017)
